The record followed here is US10835549B2, “Polyplexes” (Vanderbilt University, priority 2013, dated 2020).

What is called half-life is the time needed for the level to fall by half in the phase considered.

No end group written: not given here.

The test system of data set [1] is human bronchiolar airway smooth muscle (HASM). Briefly: Relaxation of human bronchiolar airway smooth muscle (HASM). Set-up: unit not given here.
In another data set the test system is human saphenous vein. Description: HSV enhanced relaxation with AZX 100 (muscle bath, phenylephrine / sodium nitroprusside). Conditions: 30 minutes incubation, n=3.
A further data set deals with rat aortic smooth muscle. Description: Rat aortic smooth muscle contraction (muscle bath, phenylephrine). As to conditions: 30 minutes incubation, phenylephrine challenge, n=6. As to the method:
FIGS. 71-73 show the results of an example wherein rat aortic smooth muscle was suspended on a muscle bath apparatus. Tissue was equilibrated in bicarbonate buffer and challenged with KCl (110 mM) to confirm viability of the tissue. After returning the tissue to basal tension, the smooth muscle was challenged with 5*10^−8 M phenylephrine (5*10^−8 M) and then washed with bicarbonate buffer. The tissue was then returned to basal tension through subsequent washes of bicarbonate buffer and then either treated with control, AZX 100 peptide, or AZX polyplexes. After 30 minutes of incubation, the tissue was challenged with phenylephrine, and the contractile force was compared with the initial contraction to determine the percent inhibition that occurs. […] (n=6)

A further data set relates to HCAVSMCs. Briefly: Flow cytometric quantification of intracellular uptake and retention. Conditions: HCAVSMCs, up to 5 days after treatment. (A flow cytometer gives signals particle by particle.)
Test in data set [2]: as above
Conditions: human.
Protocol: (§1) HCAVSMCs were grown to 80-90% confluence, harvested, and seeded at 20,000 cells per well in a 24-well plate and were allowed to adhere overnight in low serum media. […] Following treatment, cells were washed with PBS −/−, washed with CellScrub buffer (Genlantis) for 10 minutes at room temperature to remove extracellular polyplexes and/or peptide, washed 2× in PBS −/−, and the media was refreshed with complete growth media. Cells were then incubated for an additional 0, 12, 24, 72, or 120 hours. Cells were then washed with PBS −/−, trypsinized, and resuspended in 0.1% Trypan blue in PBS (−/−) for analysis on a FACSCalibur flow cytometer (Becton Dickinson) with BD CellQuest™ Pro software (V 5.2). Data was exported and analyzed with FlowJo software (V 7.6.4). All samples are run in triplicate.
(§2) Studies were done using a fluorescently labeled peptide and flow cytometry. […] Exponential lines were fit to each data set in order to determine a fluorescence half-life for each treatment group. Mean Fluorescence Intensity values were reported as increase in MFI compared to untreated controls, n=3.

Protocol for HCAVSMCs: as §1, §2

For the substance “AZX 100 peptide: AZX100 peptide (SEQ ID NO: 2), which can be utilized for airway relaxation (YARAAARQARAWLRRASAPLPGLK; AZX-100 Sequence)”, the “Relaxation of HASM” value in data set [1] (HASM 11, .5 mM) is 24; in data set [1] (HASM 17, 1 mM) it was 25; in data set [1] (HASM 17, .5 mM), 10; in data set [1] (HASM 18, 1 mM), 80; in data set [1] (HASM 20, 1 mM), 76; in data set [1] (HASM 20, .5 mM), 36. In addition, the “Relaxation of HASM” value in data set [1] (HASM 22, 1 mM) amounted to 84; in data set [1] (HASM 22, .5 mM), 40. Further, the enhancement of relaxation result with human saphenous vein is listed as “dose dependent enhancement of relaxation”. The inhibition of contraction entry with rat aortic smooth muscle was “dose dependent inhibition of contraction”.

With YARAAARQARAKALARQLGVAA [MK2i], in the data set on HCAVSMCs, the “intracellular retention of the peptide” value is recorded as “more rapidly lost intracellular peptide”. In addition, the half-life at 10 μM in data set [2] was 98.4 h.
